Consider 13 molecules from patent publication US9144239B2, “Macrocyclic picolinamides as fungicides” (DOW AGROSCIENCES LLC, priority 2012, dated 2015).

In one test the test system is Venturia inaequalis. The test is described as follows: Fungicidal activity: apple scab (VENTIN). Format: in vivo. The note with it: 24 h, 1 Day Protectant, read-out: Disease Control VENTIN 1 DP. Here is the method:
Technical grades of materials were dissolved in acetone, which were then mixed with nine volumes of water containing 110 ppm Triton X-100. The fungicide solutions were applied onto wheat seedlings using an automated booth sprayer to run-off. All sprayed plants were allowed to air dry prior to further handling. Wheat plants (variety Yuma) were grown from seed in a greenhouse in 50% mineral soil/50% soil-less Metro mix until the first leaf was fully emerged, with 7-10 seedlings per pot. These plants were inoculated with an aqueous spore suspension of Septoria tritici either prior to or after fungicide treatments. After inoculation the plants were kept in 100% relative humidity (one day in a dark dew chamber followed by two to three days in a lighted dew chamber at 20° C.) to permit spores to germinate and infect the leaf. The plants were then transferred to a greenhouse set at 20° C. for disease to develop. When disease symptoms were fully expressed on the 1st leaves of untreated plants, infection levels were assessed on a scale of 0 to 100 percent disease severity. Percent disease control was calculated using the ratio of disease severity on treated plants relative to untreated plants. Evaluation of Fungicidal Activity: Apple Scab (Venturia inaequalis; Bayer Code […]) Apple seedlings (variety McIntosh) were grown in soil-less Metro mix, with one plant per pot. Seedlings with two expanding young leaves at the top (older leaves at bottom of the plants were trimmed) were used in the test. Plants were inoculated with a spore suspension of Venturia inaequalis 24 hr after fungicide treatment and kept in a 22° C. dew chamber with 100% RH for 48 hr, and then moved to a greenhouse set at 20° C. for disease to develop. Fungicide formulation, application and disease assessment on the sprayed leaves followed the procedures as described in the Example A.
`COc1ccnc(C(=O)NC2COC[C@H](OCc3ccccc3)[C@@H](OCc3ccccc3)[C@H](C)OC2=O)c1OCOC(C)=O` (stereo partly drawn) [Compound 12]: the pest or weed control at 100 ppm lay within 0 to 80%.
The same measure, in the same setting: next, `COc1ccnc(C(=O)N[C@H]2COC[C@H](OCC(C)C)[C@@H](Oc3ccccc3)[C@H](C)OC2=O)c1OCOC(C)=O` [Compound 85]: 0 to 80%; `COc1ccnc(C(=O)N[C@H]2COC[C@H](OCC(C)C)[C@@H](OC3CCCCC3)[C@H](C)OC2=O)c1OCOC(C)=O` [Compound 77]: 0 to 80%.
Still for that read-out and setting: the same measure for `COc1ccnc(C(=O)N[C@H]2COC[C@H](OCC(C)C)[C@@H](OCC(C)C)[C@H](C)OC2=O)c1OCOC(C)=O` [Compound 3, (2-((3S,7S,8S,9S)-7,8-diisobutoxy-9-methyl-2-oxo-1,5-dioxonan-3-ylcarbamoyl)-4-methoxypyridin-3-yloxy)methyl]: 0 to 80%; for `COc1ccnc(C(=O)N[C@H]2COC[C@H](Oc3ccccc3)[C@@H](Oc3ccccc3)[C@H](C)OC2=O)c1OCOC(C)=O` [Compound 84]: 0 to 80%; for `COc1ccnc(C(=O)N[C@H]2COC[C@H](OCCCc3ccccc3)[C@@H](OCCCc3ccccc3)[C@H](C)OC2=O)c1OCOC(C)=O` [Compound 60]: 0 to 80%.
Same read-out and setting: the same measure for `COc1ccnc(C(=O)N[C@H]2COC[C@H](Oc3ccc(F)cc3)[C@@H](Oc3ccc(F)cc3)[C@H](C)OC2=O)c1OCOC(C)=O` [Compound 231]: 0 to 80%.
Turning to `CCC(C)(C)O[C@H]1COC[C@H](NC(=O)c2nccc(OC)c2OCOC(C)=O)C(=O)O[C@@H](C)[C@@H]1OCC(C)C` [Compound 78], the pest or weed control at 100 ppm lay in the range of 80 to 100%.
On to `COc1ccnc(C(=O)N[C@H]2COC[C@H](OCCCC(F)(F)F)[C@@H](OCCCC(F)(F)F)[C@H](C)OC2=O)c1OCOC(C)=O` [Compound 68], for which the pest or weed control at 100 ppm is 0 to 80%.
Same read-out and setting: the same measure for `COc1ccnc(C(=O)N[C@H]2COC[C@H](Oc3ccccc3)[C@@H](OCC(C)C)[C@H](C)OC2=O)c1OCOC(C)=O` [Compound 86]: 0 to 80%.

The next test deals with Rhyncosporium secalis. The test is described as follows: Fungicidal activity: barley scald (RHYNSE). The test is classed as in vivo. The following applies: 100 ppm, 1 Day Protectant. Here is the method: Technical grades of materials were dissolved in acetone, which were then mixed with nine volumes of water containing 110 ppm Triton X-100. The fungicide solutions were applied onto wheat seedlings using an automated booth sprayer to run-off. All sprayed plants were allowed to air dry prior to further handling. Wheat plants (variety Yuma) were grown from seed in a greenhouse in 50% mineral soil/50% soil-less Metro mix until the first leaf was fully emerged, with 7-10 seedlings per pot. These plants were inoculated with an aqueous spore suspension of Septoria tritici either prior to or after fungicide treatments. After inoculation the plants were kept in 100% relative humidity (one day in a dark dew chamber followed by two to three days in a lighted dew chamber at 20° C.) to permit spores to germinate and infect the leaf. The plants were then transferred to a greenhouse set at 20° C. for disease to develop. When disease symptoms were fully expressed on the 1st leaves of untreated plants, infection levels were assessed on a scale of 0 to 100 percent disease severity. Percent disease control was calculated using the ratio of disease severity on treated plants relative to untreated plants. Evaluation of Fungicidal Activity: Barley Scald (Rhyncosporium secalis; Bayer Code […]) Barley seedlings (variety Harrington) were propagated in soil-less Metro mix, with each pot having 8 to 12 plants, and used in the test when first leaf was fully emerged. Test plants were inoculated by an aqueous spore suspension of Rhyncosporium secalis 24 hr after fungicide treatments. After inoculation the plants were kept in a dew room at 20° C. with 100% relative humidity for 48 hr. The plants were then transferred to a greenhouse set at 20° C. for disease to develop. Fungicide formulation, application and disease assessment on the sprayed leaves followed the procedures as described in the Example A.
As to `CCCO[C@H]1COC[C@H](NC(=O)c2nccc(OC)c2OCOC(C)=O)C(=O)O[C@@H](C)[C@@H]1Oc1ccccc1` [Compound 221], the “Disease Control RHYNSE 1 DP” value is on record as “A (80-100)”.
On the same count and under the same terms, the same measure for `COc1ccnc(C(=O)N[C@H]2COC[C@H](Oc3ccccc3)[C@@H](Oc3ccccc3)[C@H](C)OC2=O)c1OCOC(C)=O` [Compound 84]: “A (80-100)”; for `COc1ccnc(C(=O)N[C@H]2COC[C@H](Oc3ccc(F)cc3)[C@@H](Oc3ccc(F)cc3)[C@H](C)OC2=O)c1OCOC(C)=O` [Compound 231]: “A (80-100)”; for `CCCO[C@H]1[C@H](C)OC(=O)[C@@H](NC(=O)c2nccc(OC)c2OCOC(C)=O)COC[C@@H]1Oc1ccccc1` [Compound 222]: “A (80-100)”.
Same read-out and setting: the same measure for `COc1ccnc(C(=O)N[C@H]2COC[C@H](Oc3ccc(F)cc3)[C@@H](Oc3ccc(F)cc3)[C@H](C)OC2=O)c1OC(C)=O` [Compound 229, 2-(((3S,7S,8S,9S)-7,8-bis(4-fluorophenoxy)-9-methyl-2-oxo-1,5-dioxonan-3-yl)carbamoyl)-4-methoxypyridin-3-yl acetate]: “A (80-100)”.
